Like-named read-outs stand apart in the source and are kept apart here.
Key:
MAGL [1] = target: T1, MAGL (Mus musculus (Mouse), UniProt O35678); assay: Mouse brain proteomes from inhibitor treated mice (oral gavage, brain MAGL activity 4 h after administration); format: in vivo; details: 5 mg/kg oral gavage
Experimental: Preparation of Mouse Brain Proteomes from Inhibitor Treated Mice.
Inhibitors were administered to wild-type C57B1/6J by oral gavage in a vehicle of polyethylene glycol.

MAGL [2] = target: T1, MAGL; assay: In vitro competitive activity-based protein profiling, mouse brain proteome; format: biochemical; details: for inhibition at 1 µM: mouse
MAGL [3] = target: MAGL (Homo sapiens (Human), UniProt Q99685); assay: In vitro competitive activity-based protein profiling (gel-based, FP-Rh or HT-01 probe); format: biochemical
Sequence of MAGL (Homo sapiens (Human), UniProt Q99685) (Q99685 whole entry): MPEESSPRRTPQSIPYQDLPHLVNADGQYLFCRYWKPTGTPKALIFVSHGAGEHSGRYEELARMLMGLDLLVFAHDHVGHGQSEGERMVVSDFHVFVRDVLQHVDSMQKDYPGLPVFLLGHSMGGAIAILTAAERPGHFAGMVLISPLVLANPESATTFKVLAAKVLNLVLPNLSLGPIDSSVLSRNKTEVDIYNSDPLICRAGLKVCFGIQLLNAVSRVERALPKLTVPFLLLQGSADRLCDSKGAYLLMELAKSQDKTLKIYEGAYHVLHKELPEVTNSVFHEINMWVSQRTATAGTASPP
Experimental: In Vitro Competitive Activity-Based Protein Profiling.
Proteomes (human prefrontal cortex or cell membrane fractions) (50 μL, 1.0 mg/mL total protein concentration) were preincubated with varying concentrations of inhibitors at 37° C. After 30 min, FP-Rh or HT-01 (1.0 μL, 50 μM in DMSO) was added and the mixture was incubated for another 30 min at room temperature. Reactions were quenched with SDS loading buffer (15 μL—4×) and run on SDS-PAGE.

[4] = human PC3, read-out: MAGL % Inhibition at 1 μM (human PC3)
[5] = human PFC (prefrontal cortex), read-out: MAGL % Inhibition at 1 μM (human PFC)
[6] = human PC3, read-out: MAGL Human PC3 (IC50)

T1 sequence (O35678 whole entry): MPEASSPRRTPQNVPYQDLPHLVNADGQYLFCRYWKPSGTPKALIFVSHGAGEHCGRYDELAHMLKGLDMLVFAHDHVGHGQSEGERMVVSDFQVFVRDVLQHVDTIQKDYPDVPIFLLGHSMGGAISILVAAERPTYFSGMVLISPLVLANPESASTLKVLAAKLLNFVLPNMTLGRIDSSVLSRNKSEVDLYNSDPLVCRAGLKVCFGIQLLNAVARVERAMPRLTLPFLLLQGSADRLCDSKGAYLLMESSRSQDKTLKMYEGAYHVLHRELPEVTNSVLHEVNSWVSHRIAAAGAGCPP

| inhibition at 1 µM (MAGL [2]) [%] | IC50 (MAGL [2]; mouse brain) [nM] | inhibition at 1 µM (MAGL [3]; [4]) [%] | inhibition at 1 µM (MAGL [3]; [5]) [%] | IC50 (MAGL [3]; human PFC (prefrontal cortex), read-out: MAGL Human PFC (IC50)) [nM] | IC50 (MAGL [3]; [6]) [nM] | Structure (SMILES) | MAGL % Inhibition at 5 mg/kg (Mouse) (MAGL [1]) |
| --- | --- | --- | --- | --- | --- | --- | --- |
| > 75 | < 100 |  |  |  |  | CC(C)n1cc(CN2CCC3(CCN(C(=O)OC(C(F)(F)F)C(F)(F)F)CC3)C2)c(-c2ccccc2)n1 [Example 6, 1,1,1,3,3,3-Hexafluoropropan-2-yl 2-((1-isopropyl-3-phenyl-1H-pyrazol-4-yl)methyl)-2,8-diazaspiro[4.5]decane-8-carboxylate] | ## (% inhibition is less than 75% and greater than 25%) |
| > 75 |  | > 75 | > 75 |  |  | CN(C(=O)C(F)(F)c1cnccn1)C1(C)CCN(C(=O)OC(C(F)(F)F)C(F)(F)F)CC1 [Example 198, 1,1,1,3,3,3-Hexafluoropropan-2-yl 4-(2,2-difluoro-N-methyl-2-(pyrazin-2-yl)acetamido)-4-methylpiperidine-1-carboxylate] |  |
| > 75 |  | > 75 | > 75 | < 100 |  | COc1cnc(C(F)(F)C(=O)N(C)C2(C)CCN(C(=O)OC(C(F)(F)F)C(F)(F)F)CC2)cn1 [Example 199, 1,1,1,3,3,3-Hexafluoropropan-2-yl 4-(2,2-difluoro-2-(5-methoxypyrazin-2-yl)-N-methylacetamido)-4-methylpiperidine-1-carboxylate] |  |
| > 75 |  | > 75 | > 75 |  | < 100 | O=C(OC(C(F)(F)F)C(F)(F)F)N1CCC2(CCCN2C(=O)C2(c3ccnc(C4CC4)n3)CC2)CC1 [Example 201, 1,1,1,3,3,3-Hexafluoropropan-2-yl 1-(1-(2-cyclopropylpyrimidin-4-yl)cyclopropane-1-carbonyl)-1,8-diazaspiro [4.5]decane-8-carboxylate] |  |
| > 75 |  | > 75 | > 75 |  | < 100 | O=C(OC(C(F)(F)F)C(F)(F)F)N1CCC2(CCCN2C(=O)C2(c3nccc(C(F)(F)F)n3)CC2)CC1 [Example 202, 1,1,1,3,3,3-Hexafluoropropan-2-yl 1-(1-(4-(trifluoromethyl)pyrimidin-2-yl)cyclopropane-1-carbonyl)-1,8-diazaspiro [4.5]decane-8-carboxylate] |  |
| > 75 |  | > 75 | > 75 |  | < 100 | COc1ccnc(C2(C(=O)N3CCCC34CCN(C(=O)OC(C(F)(F)F)C(F)(F)F)CC4)CC2)n1 [Example 203, 1,1,1,3,3,3-Hexafluoropropan-2-yl 1-(1-(4-methoxypyrimidin-2-yl)cyclopropane-1-carbonyl)-1,8-diazaspiro [4.5]decane-8-carboxylate] |  |
| > 75 |  | > 75 | > 75 |  | < 100 | CC1(NC(=O)c2nnc3n2CCN(C2CCC2)C3)CCN(C(=O)OC(C(F)(F)F)C(F)(F)F)CC1 [Example 205, 1,1,1,3,3,3-Hexafluoropropan-2-yl 4-(7-cyclobutyl-5,6,7,8-tetrahydro-[1,2,4]triazolo[4,3-a]pyrazine-3-carboxamido)-4-methylpiperidine-1-carboxylate] |  |
| 25 to 75 |  | 25 to 75 | > 75 |  |  | CN(C(=O)c1nnc2n1CCNC2)C1(C)CCN(C(=O)OC(C(F)(F)F)C(F)(F)F)CC1 [Example 210, 1,1,1,3,3,3-Hexafluoropropan-2-yl 4-methyl-4-(N-methyl-5,6,7,8-tetrahydro-[1,2,4]triazolo [4,3-a]pyrazine-3-carboxamido) piperidine-1-carboxylate] |  |
| > 75 |  | > 75 | > 75 |  |  | COCCN(C(=O)C1(c2ncccn2)CC1)C1(C)CCN(C(=O)OC(C(F)(F)F)C(F)(F)F)CC1 [Example 212, 1,1,1,3,3,3-hexafluoropropan-2-yl 4-(N-(2-methoxyethyl)-1-(pyrimidin-2-yl)cyclopropane-1-carboxamido)-4-methylpiperidine-1-carboxylate] |  |

Reference: US11142526B2, “Spirocycle compounds and methods of making and using same” (H. Lundbeck A/S, priority 2017, dated 2021)
